Experimental data: patent US12329764B2, “Composition for promoting normal urinary function” (Vidya Herbs, Inc., priority 2018, dated 2025)

Tests used:
BPH model rats = assay: Prostate growth in testosterone induced BPH rats; type: in vivo, Wistar rats
Protocol: Forty-two male Wistar rats (10 week old) were purchased from Biogen, Bangalore, India (CPCSEA Reg. No. 971/bc/06). The animals were housed in accordance with the CPCSEA (Committee for the Purpose of Control and Supervision of Experiments on Animals) guidelines. After a one-week acclimatization period the animals were housed in rooms maintained at 22±2° C. and 30-70% humidity. Water and standard pellet diet were given ad libitum. The animals were randomly divided into seven groups, each group consisting of six animals with less than 20% mean body weight range.
(§1) BPH was induced in rats using testosterone 5 mg/kg subcutaneously and a simultaneous treatment with different doses of saw palmetto preparations viz. Saw palmetto oil (SPO) and the inventive composition (200 and 400 mg/kg b.w.) or Finasteride (1 mg/kg b.w.) p.o., was followed for 21 days (Table 1). The inventive composition (VISPO) was a composition of saw palmetto oil having 3% β-sitosterol. At the end of the treatment period, blood was collected prior to the necropsy. Animals were sacrificed by overdose of anesthetics. The vital parameters such as prostate weight, prostate weight to body weight ratio, growth inhibition of prostate, serum testosterone level, expression of inflammatory and apoptotic proteins in prostate tissue were evaluated.
Following a 21-day treatment with the saw palmetto oil preparations and/or Finasteride, prostate tissues were excised, rinsed and weighed immediately after removal. The PW/BW ratio was calculated using the following equation: PW/BW ratio=(Prostate weight of each animal from experimental group/Body weight of each animal from experimental group)×1000. The percentage of growth inhibition was calculated as follows: 100−[(treated group−control group)/(BPH group−control group)]×100.

[1] = system: hyperplastic patterns in prostate tissue of BPH rats; assay: Histology (H&E) of prostate tissue of BPH rats; type: in vivo, Wistar rats; settings: finasteride group 1 mg/kg
Protocol: as §1
The prostate tissue samples were fixed in 4% formalin, dehydrated with a graded alcohol series, embedded in paraffin, and then cut into 4 μm thickness. The sections were stained with hematoxylin and eosin (H&E, Sigma-Aldrich, St. Louis, MO, USA). The images were captured using a microscope (Leica, Germany).

Compound: CC(C)(C)NC(=O)[C@H]1CC[C@H]2[C@@H]3CC[C@H]4NC(=O)C=C[C@]4(C)[C@H]3CC[C@]12C [Finasteride]
- Prostate weight (BPH model rats; 1 mg/kg p.o., 21 days, testosterone 5 mg/kg s.c., mean ± SEM (n = 6)): 0.27 ± 0.01 g
- Inhibition of growth (BPH model rats; 1 mg/kg p.o., 21 days, prostate growth vs BPH and control groups): 93.18%
- Reduction in prostate weight (BPH model rats; Finasteride treatment 1 mg/kg, vs BPH group): 2.51 fold
- Prostate weights, in words (BPH model rats; vs BPH group, p<0.001): reduced considerably
- Histological examination of prostate tissue [1]: near normal prostatic glands with mild focal inflammation
